Measurements as given in patent US20240241108A1, “LUNG ORGANOID MODEL AND METHOD OF USE” (The Regents of the University of California, priority 2021, published 2024).

Assays:
SARS-COV-2 [1] = assay: Pre-clinical drug screen in SARS-COV-2-infected lung organoid monolayers (384-well), viral E gene qPCR readout; assay type: cell-based; conditions: FIG. 3G; for viral titer (abundance of E gene in the monolayers): pre-treated for 4 hours prior to infection, assessed at 48 hours post-infection, DMSO control
Protocol: Using the E gene as a readout, it was determined whether lung organoid models could be used as platforms for pre-clinical drug screens. The efficacy of nucleoside analog N^4-hydroxycytidine (NHC: EIDD-parent) and its derivative pro-drug. EIDD-2801, were tested. […] Lung organoid monolayers plated in 384-wells were pre-treated for 4 hours with the compounds or DMSO, as a control, prior to infection. The monolayers were assessed at 48 hours post-infection for the abundance of E gene in the monolayers.
Densely packed organoids, collected in PBS/0.5 mM EDTA were centrifuged at 200 rcf for 5 minutes. Organoids were dissociated in 2 mL trypLE Select (Gibco, USA) per 12 wells of organoids at 37 °C for 4-5 minutes and mechanically sheared by pipetting up and down. The TrypLE was inactivated with al-to-5 trypLE to Lung Wash Media ratio. The cells were thereafter centrifuged at 300 g for 4 minutes. The supernatant was aspirated and resuspended in the cell pellet at room temperature using PneumaCult Ex-Plus Mix, with larger clumps of cells being filtered out using […] filter. The viable cells were counted and plated using PneumaCult Ex-Plus media. Cells were either plated 10^5 cells per well in a 96 well plate, or 2×10^4 cells per well in a 384 well Matrigel coated plate. The media was changed after 24 hours of incubation. After 48 hours of plating, the cells were differentiated and appeared flattened. The cells were then infected with MOI of 0.5 with SARS-COV-2. After treatment, the lung monolayers were used for RNA sequencing, immunostaining, and other functional assay.
Lung organoid-derived monolayers or primary airway epithelial cells, either in 384 well plates or in transwells, were washed twice with antibiotic-free lung wash media. […]
Assessment of SARS-COV-2 infectivity test was determined by qPCR using TaqMan assays and TaqMan Universal PCR Master Mix96.97. cDNA was amplified with gene-specific primer/probe set for the E gene and qPCR was performed with the Applied Biosystems QuantStudio 3 Real-Time PCR System. […]

SARS-COV-2 [2] = conditions: cited from earlier work
SARS-COV-2 [3] = conditions: cited from earlier work; remark: listed apart in the source

SMILES	viral titer (abundance of E gene in the monolayers) (SARS-COV-2 [1])	inhibition of viral replication in vitro (SARS-COV-2 [2])	inhibition of viral replication in SARS-COV-2-challenged ferrets (SARS-COV-2 [3])	efficacy compared with the parent compound (reduction of viral titer) (SARS-COV-2 [1]; pre-treated 4 hours, 48 hours post-infection)
O=c1nc(NO)ccn1[C@@H]1O[C@H](CO)[C@@H](O)[C@H]1O [NHC, N^4-hydroxycytidine]	effectively reduced the viral titer in a dose-dependent manner	inhibit viral replication	inhibit viral replication	
CC(C)C(=O)OC[C@H]1O[C@@H](n2ccc(NO)nc2=O)[C@H](O)[C@@H]1O [EIDD-2801]	effectively reduced the viral titer in a dose-dependent manner	inhibit viral replication	inhibit viral replication	showed a better efficacy
